Laboratory results as given in patent US9618513B2, “Compositions and methods for detecting and treating colorectal cancer” (The Regents of the University of Michigan, priority 2014, dated 2017).

Key:
Format in all cases: cell-based, human
SUZ12, Sox2 = experiment: SUZ12 and Sox2 expression after DOT1L/H3K79me2 inhibitor (FIG. 21A); conditions: 10 uM
[1] = tested on: NANOG, SOX2, POU5F1 (OCT3/4); experiment: Stem cell core gene expression (real-time PCR, western blotting); conditions: DLD-1, IL-22 20 ng/ml
Description: (A), IL-22 is expressed in colon cancer tissues. IL-22 mRNA was detected by real-time PCR in colon cancer tissues and peripheral blood. *P<0.05 compared to blood, 20 colon cancer patients. (B-D), Endogenous IL-22 promotes colon carcinogenesis. Single cells (10^7) isolated from colon cancer tissue were mixed with anti-IL-22 antibody or control mAb, and then subcutaneously injected to NSG mice. Tumor growth (B), incidence (C), and animal survival (D) are shown. (P<0.05 for all, n=5 per group). (E-G) Recombinant IL-22 promotes colon carcinogenesis. DLD-1 colon cancer cells (10^5) were pre-incubated with IL-22 (20 ng/ml) for 1 hour, and then subcutaneously injected to NSG mice. […] ALDH activity was determined by FACS based on aldefluor fluorescence. […] Results are expressed as fold changes of ALDH expression. […] The mRNA of stem cell core gene was detected by real-time PCR (K) and proteins were detected by western blotting (L, M). […]
(A, B) IL-22 is expressed by immune cells in colon cancer tissues. Different cell populations were sorted from colon cancer tissues and IL-22 expression was measured by real time PCR. […] IL-22 was detected via ELISA. […] IL-22 was detected with ELISA (D) or intracellular staining (E). […] IL-22 mRNA was detected by real time PCR (F) and protein by ELISA (G). […] IL-22 expression was quantified with real-time PCR in the migrated and non-migrated cells. […]

[2] = tested on: H3K27me3 in the promoter of p16 and p18; experiment: H3K27me3 ChIP at p16 and p18 promoters; conditions: after IL-22 stimulation
Protocol: A, C. Cell proliferation was analyzed using H^3 Thymidine Incorporation. B. The level of total H3K79m2 and H3K27me3 was measured by Western Blot. D. PcG proteins of EZH2, EED, SUZ12 was increased with IL-22(20 ng/ml) treatment. E. EZH2, SUZ12 and EED was detected by Western Blot after IL-22 treated for 24 h or 48 h. F. EZH2 inhibitor DZNep reduced cell proliferation. G.H. The efficiency of EZH2 and SUZ12 knock down was tested by Western Blot. I.J. Cell proliferation was analyzed using H^3 Thymidine Incorporation after knock down of EZH2 and SUZ12. K.L. Relative expression of cyclin-dependent kinase inhibitors (p16 and p18) in shEZH2, shSUZ12 and Dznep treated cells after IL-22 treatment. M. The level of H3K27me3 in the promoter of p16 and p18 was analyzed by ChIP assay.
ChIP assay was performed according to the protocol (Upstate, Millipore; htt, followed by, p://www.millip, followed by, ore.com/techpublica, followed by, tions/tech1/mcproto407). Crosslinking was performed with 1% formaldehyde or 1% paraformaldehyde for 10 min. To enhance cell lysis, we ran the lysate through a 27 g needle three times and flash froze it in −80° C. Sonication was then performed with the Misonix 4000 water bath sonication unit at 15% amplitude for 10 min. Protein/DNA complex was precipitated by specific antibodies against H3K79me2, H3K27me3 (Millipore), Stat3 (Cell Signaling) and IgG control (Millipore). […]

Molecule: CC(C)N(CCCNC(=O)Nc1ccc(C(C)(C)C)cc1)C[C@H]1O[C@@H](n2ccc3c(N)ncnc32)[C@H](O)[C@@H]1O [EPZ004777]
- SUZ12 expression (SUZ12, Sox2): no effect
- Sox2 expression (SUZ12, Sox2): reduce

Molecule: IL-22: recombinant IL-22 (R&D systems), cytokine interleukin-22
- mRNA levels of stem cell core genes NANOG, SOX2, POU5F1 (OCT3/4) ([1]; real-time PCR): enhanced
- protein levels of stem cell core genes NANOG, SOX2, POU5F1 (OCT3/4) ([1]; western blotting): enhanced
- level of H3K27m3 in the promoter of p16 and p18 [2]: increased
